This passage reports TGI results from PubChem BioAssay (NCI).

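Exposure lasted 48 hours, with cells grown in 96-well plates and compounds tested at five concentrations. TGI denotes the concentration required for complete inhibition of growth.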 A value given as a limit tells only on which side of the number the result lay.

One experiment has as its system P388 leukemia. Put plainly: NCI tumour cell line growth inhibition, 48 h.
In another experiment the test system is P388/ADR leukemia. Put plainly: NCI tumour cell line growth inhibition, 48 h.

In the experiment with P388 leukemia, `CC(=O)OC1C=C(C=O)C(O)(C=O)C2(C)CCCC(C)(C)C12` (stereo not drawn) registered a TGI of 0.525 µM.
Turning to `Cc1[nH]c(=O)[nH]c(=O)c1/C=C/C(=O)NC(CO)CC(C)C` (stereo not drawn), the TGI with P388 leukemia was above 375 µM; in the experiment with P388/ADR leukemia, above 149 µM.
